Test results reported in PubChem BioAssay (NCI).
Where “and” joins values, the source holds several entries; their conditions need not be identical. Equal entries are not always repeated.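 Compound exposure: 48 hours, 5 concentrations, 96-well plates. Abbreviation: GI50, concentration required for 50% inhibition of growth. The concentration for full growth arrest is given as TGI.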

Key:
Experiment in all cases: NCI tumour cell line growth inhibition, 48 h
[1] = tested on: DMS 114 small cell lung
[2] = tested on: DU-145 prostate
[3] = tested on: IGROV1 ovarian
[4] = tested on: OVCAR-5 ovarian
[5] = tested on: SK-MEL-5 melanoma
[6] = tested on: SN12C renal
[7] = tested on: SNB-78 CNS
[8] = tested on: SR leukemia
[9] = tested on: UACC-62 melanoma
[10] = tested on: UO-31 renal

Structure (SMILES)	TGI [1]	TGI [2]	TGI [3]	TGI [4]	TGI [5]	TGI [6]	TGI [7]	TGI [8]	TGI [9]	TGI [10]	GI50 [2]	GI50 [4]	GI50 [5]	GI50 [6]	GI50 [8]	GI50 [9]	GI50 [10]	GI50 [1]	GI50 [3]	GI50 [7]
COc1cc([C@H]2c3cc4c(cc3O[C@@]3(O)COC(=O)[C@@H]23)OCO4)cc(OC)c1OC	> 100 µM	> 100 µM	> 100 µM	> 100 µM	> 100 µM	> 100 µM	> 100 µM	> 100 µM	> 100 µM	> 100 µM	–	–	–	–	–	–	–	–	–	–
O=C(O)c1c(-c2cccc3ccccc23)sc(-c2cccc3ccccc23)c1C(=O)O	> 100 µM	–	> 100 µM	> 100 µM	> 100 µM	> 100 µM	> 100 µM	> 100 µM	> 100 µM	> 100 µM	–	–	–	–	–	–	–	–	–	–
O=C(c1ccccc1)C(C(=O)c1ccccc1)C1(O)C(=O)c2ccccc2C1=O	–	–	> 100 µM	> 100 µM	–	> 100 µM	> 100 µM	> 100 µM	> 100 µM	> 100 µM	–	–	–	–	–	–	–	–	–	–
CN1CC[C@@H](c2c(O)cc(O)c3c(=O)cc(-c4ccccc4Cl)oc23)[C@@H](O)C1	0.334 µM	–	> 100 µM	–	0.265 µM and 0.182 µM	13.2 µM	> 17.6 µM	0.0468 µM and 0.277 µM	0.133 µM and 0.182 µM and 0.102 µM	0.876 µM and 0.164 µM and 1.18 µM	0.0774 µM and 0.0902 µM	0.0801 µM and 0.146 µM	0.0631 µM	0.213 µM	0.014 µM	0.0571 µM and 0.0424 µM	0.0713 µM and 0.0363 µM and 0.0238 µM	–	–	–
C[C@@H]1C[C@@H](O)[C@]2(O)O[C@@H]3C[C@@]4(C=O)[C@@H](CC[C@@H]5[C@@H]4CC[C@]4(C)[C@@H](C6=CC(=O)OC6)CC[C@]54O)C[C@H]3O[C@@H]2O1	0.0094 µM and 0.0134 µM	0.111 µM	0.0474 µM and 0.175 µM and 0.0516 µM	0.102 µM and 0.299 µM and 0.194 µM	0.0303 µM and 0.055 µM and 0.0584 µM	0.0897 µM and 0.144 µM and 0.0759 µM	0.211 µM	0.0128 µM and 0.0317 µM	0.0465 µM and 0.213 µM and 0.0895 µM	0.0559 µM and 0.0454 µM	–	0.119 µM and 0.0652 µM	0.0247 µM	0.005 µM	0.013 µM	0.0515 µM and 0.0216 µM	0.0143 µM	0.005 µM	0.033 µM and 0.00727 µM	–
CCOC(=O)C(=O)Nc1nc2c(s1)C(=O)c1ccccc1C2=O	17.6 µM	–	37.6 µM	42.5 µM	33.7 µM	30.1 µM	24.8 µM	23.4 µM	34.4 µM	28 µM	–	–	–	–	–	–	–	–	–	–
O=C(c1ccccc1)C(c1ccccc1)C1(O)C(=O)Nc2c(Cl)cc(Cl)cc21 (stereo unspecified)	33.9 µM	–	–	33.2 µM	30.7 µM	> 100 µM	67.4 µM	–	–	38.4 µM	–	–	–	–	–	–	–	–	–	–
COc1ccc(C(=O)/C(Br)=C/C(=O)O)cc1	114 µM	128 µM and 202 µM	321 µM and 461 µM	131 µM and 129 µM	39.6 µM and 47.7 µM	228 µM and 183 µM	–	> 86 µM and 321 µM	45.3 µM and 32.3 µM	77.7 µM and 103 µM	65.3 µM	–	12.7 µM	53.7 µM	19.1 µM	12.3 µM	20.3 µM	–	121 µM and 144 µM	–
CCOC(=O)[C@@]1(C)C=C2O[C@@H]3OC4(CCCCC4)O[C@@H]3C2=C2C(O)=CC=C(O)[C@]21C(=O)OC	> 68 µM	–	> 68 µM	> 68 µM	> 68 µM	> 68 µM	> 68 µM	–	> 68 µM	> 68 µM	–	–	–	–	–	–	–	–	–	–
O=C(O)CSc1n[nH]c(-c2ccc(O)cc2)n1	> 100 µM	–	> 100 µM	> 100 µM	> 100 µM	–	> 100 µM	> 100 µM	> 100 µM	> 100 µM	–	–	–	–	–	–	–	–	–	–
O=C(CNc1nncs1)NO	> 100 µM	–	> 100 µM	> 100 µM	–	> 100 µM	> 100 µM	–	> 100 µM	> 100 µM	–	–	–	–	–	–	–	–	–	–
N#CCC(=O)Nc1cccc(C(F)(F)F)c1	–	–	> 100 µM	> 100 µM	> 100 µM	> 100 µM	> 100 µM	> 100 µM	> 100 µM	> 100 µM	–	–	–	–	–	–	–	–	–	–
CC(=O)O/C=C(/C=C/OC(C)=O)C(C/C=C(\C)C#CC=C(C)C)OC(C)=O (stereo unspecified)	38.5 µM	–	95.6 µM	> 100 µM	> 100 µM	> 100 µM	72.2 µM	–	77.7 µM	> 100 µM	–	–	–	–	–	–	–	–	–	–
COc1cc(CCc2ccc(OCCN(C)C)cc2)cc(OC)c1OC	> 100 µM	–	> 100 µM	88.4 µM	64.6 µM	> 100 µM	> 100 µM	> 100 µM	> 100 µM	> 100 µM	–	–	–	–	–	–	–	–	–	–
Cc1nc2c(nc1C)C(=O)c1cc(O)ccc1C2=O	> 90.6 µM	–	> 100 µM	> 100 µM	29.6 µM	> 100 µM	> 100 µM	> 100 µM	53.5 µM	> 100 µM	–	–	–	–	–	–	–	–	–	–
Cn1c(=O)nc2n(-c3ccc(Cl)cc3)c3ccc(Cl)cc3nc-2c1=O	–	–	51.1 µM	29.6 µM	2.37 µM	27.6 µM	29.6 µM	58 µM	3.09 µM	39.8 µM	–	–	–	–	–	–	–	–	–	–
CCOc1ccccc1NC(=O)C(=O)CC(=O)c1c(C)n([O-])c2ccccc2[n+]1=O	> 100 µM	–	> 100 µM	> 100 µM	> 100 µM	> 100 µM	> 100 µM	–	> 100 µM	> 100 µM	–	–	–	–	–	–	–	–	–	–

Structure (SMILES)	TGI [1]	TGI [2]	TGI [3]	TGI [4]	TGI [5]	TGI [6]	TGI [7]	TGI [8]	TGI [9]	TGI [10]	GI50 [2]	GI50 [4]	GI50 [5]	GI50 [6]	GI50 [8]	GI50 [9]	GI50 [10]	GI50 [1]	GI50 [3]	GI50 [7]
Nn1c(-c2ccccc2)nc2ccc(Br)cc2c1=O	> 100 µM	–	> 100 µM	> 100 µM	> 100 µM	> 100 µM	> 100 µM	–	> 100 µM	> 100 µM	–	–	–	–	–	–	–	–	–	–
CC1=C(C)C(=O)c2c(cc3ccc4ccccc4n23)C1=O	> 100 µM	–	> 100 µM	> 100 µM	> 100 µM	> 100 µM	> 100 µM	> 100 µM	> 100 µM	> 100 µM	–	–	–	–	–	–	–	–	–	–
O=C1CC(O)C=C1Nc1ccc(Cl)cc1 (stereo unspecified)	> 100 µM	–	> 100 µM	> 100 µM	> 100 µM	> 100 µM	> 100 µM	90.9 µM	5.14 µM	> 100 µM	–	–	–	–	–	–	–	–	–	–
COC(=O)C1CC2(CC3=C1CCCC3)OCCO2 (stereo unspecified)	> 100 µM	–	> 100 µM	–	> 100 µM	> 100 µM	> 100 µM	–	> 100 µM	> 100 µM	–	–	–	–	–	–	–	–	–	–
CC[C@H](C)N(CCN)C(=O)c1cc2ccccc2c(-c2ccccc2Cl)n1	28 µM	–	26.2 µM	27.9 µM	–	32.8 µM	31.6 µM	28.1 µM	29.5 µM	25.3 µM	–	–	–	–	–	–	–	–	–	–
O=C1C(=O)N(C(=O)c2ccc(Cl)c(Cl)c2)c2ccccc21	> 100 µM	–	> 100 µM	> 100 µM	> 100 µM	–	> 100 µM	> 100 µM	> 100 µM	> 100 µM	–	–	–	–	–	–	–	–	–	–
Cc1cc2c(c(C#N)c1C)NC(=O)CCC2=O	> 100 µM	–	> 100 µM	–	–	> 100 µM	> 100 µM	> 100 µM	> 100 µM	91.4 µM	–	–	–	–	–	–	–	–	–	–
N#Cc1cn(C2OC(CO)C(O)C2O)c2ncnc(N)c12 (stereo unspecified)	–	–	–	–	0.109 µM	–	> 450 µM	> 100 µM	0.156 µM and 0.0603 µM and 0.115 µM	0.665 µM and 0.819 µM and 1.98 µM	–	0.238 µM	0.0416 µM	< 0.0119 µM	–	< 0.0136 µM	0.0658 µM and 0.0459 µM and 0.0271 µM	–	0.0266 µM	0.0736 µM
CNC(P(=O)([O-])[O-])P(=O)([O-])[O-].N.N.[Pt+2]	–	–	> 100 µM	> 100 µM	–	> 100 µM	> 100 µM	–	> 100 µM	> 100 µM	–	> 100 µM	–	> 100 µM	–	> 100 µM	> 100 µM	–	> 100 µM	> 100 µM
CC1=C(C(=O)Nc2c(C)cccc2C)C(c2ccc3c(c2)OCO3)C(C(=O)Nc2c(C)cccc2C)=C(C)N1	38.1 µM	–	28.5 µM	33.7 µM	–	32.7 µM	78.8 µM	90.9 µM	10.9 µM	30.6 µM	–	–	–	–	–	–	–	–	–	–
COc1ccc(-c2nn3ncccc3c2-c2ccnc(Nc3ccc(Cl)c(C(F)(F)F)c3)n2)cc1	–	> 25 µM	> 25 µM	> 25 µM	> 22 µM	> 25 µM	–	> 25 µM	> 25 µM	> 25 µM	14 µM	9.39 µM	7.16 µM	9.54 µM	17.6 µM	9.36 µM	6.32 µM	–	9.48 µM	–
CN1CCN(CN2C(=O)C3C4C=CC(C3C2=O)C2C3C(=O)N(CN5CCN(C)CC5)C(=O)C3C42)CC1 (stereo unspecified)	36.8 µM and 37.7 µM and 35.5 µM	77.2 µM	> 100 µM	> 100 µM	31 µM and > 58.5 µM and 68.7 µM	43.7 µM and 41.9 µM and 52.8 µM	–	41.6 µM and 36.2 µM	43.3 µM and 37.1 µM and 58.7 µM	76.8 µM and > 67.8 µM and > 100 µM	–	–	–	–	–	–	–	–	–	–
Nc1ccn(CCOC(=O)c2ccccc2)c(=O)n1	–	–	> 100 µM	> 100 µM	> 100 µM	> 100 µM	> 100 µM	–	> 100 µM	> 100 µM	–	–	–	–	–	–	–	–	–	–
COc1cc(C2CC(c3ccc(C)cc3)=NN2C=O)ccc1Oc1ccnc2cc(Cl)ccc12 (stereo unspecified)	–	> 50 µM	> 50 µM	> 50 µM	> 50 µM	> 50 µM	–	> 50 µM	> 50 µM	> 50 µM	> 50 µM	> 50 µM	> 50 µM	> 50 µM	> 50 µM	11.2 µM	> 50 µM	–	24.8 µM	–
COc1cc(OC)c([C@@H]2OC(=O)C3C2C(=O)O[C@H]3c2cc(OC)c(OC)cc2OC)cc1OC (stereo partly specified)	> 100 µM	–	> 10 µM	–	–	> 100 µM	> 100 µM	> 100 µM	> 100 µM	> 100 µM	–	–	–	–	–	–	–	–	–	–
Cc1ccc(OCC(=O)N2N=C(c3ccccc3)CC2(O)c2ccccc2)cc1 (stereo unspecified)	–	–	> 100 µM	32.7 µM	–	40.3 µM	51.5 µM	> 100 µM	> 100 µM	> 100 µM	–	–	–	–	–	–	–	–	–	–
C=CCn1c2c(c3ccccc3c1=O)C(=O)c1ccccc1-2	–	> 100 µM	> 100 µM	> 100 µM	> 100 µM	> 100 µM	–	> 100 µM	> 100 µM	> 100 µM	–	–	–	–	–	–	–	–	–	–
